Experiments:
K562/DOX cells = test: Intrinsic cytotoxicity (MTT); assay type: cell-based, human; conditions: compound alone at 3 µM, 72 h
Experimental: Compounds were first studied at 1 and 3 µM concentrations to evaluate their intrinsic cytotoxicity in both the parental K562 and the resistant K562/DOX cell lines, using the MTT assay. All compounds had no intrinsic cytotoxicity in the parental line.
The intrinsic toxicity of the studied compounds was determined by an MTT assay. K562 and K562/DOX were exposed for 72 h with compounds at 1 and 3 µM concentrations while HT29, A549, HT29/DOX and A549/DOX cells were incubated for 48 h with compounds used at different concentrations (from 10 nM to 50 µM). The percentage of growth compared to the untreated control was transformed into histograms with the GraphPad Prism 5 program.

A549/DOX cells = test: Intrinsic cytotoxicity (MTT); assay type: cell-based, human; conditions: 48 h; for toxicity: compound alone at 1 µM, A549/DOX; for more cytotoxic in resistant cells than in parental sensitive cells: compound alone, 1 µM, A549/DOX vs A549
In short: (§1)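 Resistant HT29/DOX and A549/DOX cells exposed for 48 h to compounds from 10 nM to 50 µM; viability measured by MTT. Growth expressed as percentage of untreated control.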

HT29/DOX cells = test: Intrinsic cytotoxicity (MTT); assay type: cell-based, human; conditions: 48 h; for toxicity: compound alone at 1 µM, HT29/DOX; for more cytotoxic in resistant cells than in parental sensitive cells: compound alone, 1 µM, HT29/DOX vs HT29
In short: as §1

P-gp = P-gp (Homo sapiens, UniProt P08183); test: Calcein-AM transport inhibition in MDCK-MDR1 cells; assay type: cell-based; design: expressed in transfected cells; host or cells: MDCK (Madin-Darby Canine Kidney); conditions: mean ± SEM
P-gp, sequence (P08183 whole entry): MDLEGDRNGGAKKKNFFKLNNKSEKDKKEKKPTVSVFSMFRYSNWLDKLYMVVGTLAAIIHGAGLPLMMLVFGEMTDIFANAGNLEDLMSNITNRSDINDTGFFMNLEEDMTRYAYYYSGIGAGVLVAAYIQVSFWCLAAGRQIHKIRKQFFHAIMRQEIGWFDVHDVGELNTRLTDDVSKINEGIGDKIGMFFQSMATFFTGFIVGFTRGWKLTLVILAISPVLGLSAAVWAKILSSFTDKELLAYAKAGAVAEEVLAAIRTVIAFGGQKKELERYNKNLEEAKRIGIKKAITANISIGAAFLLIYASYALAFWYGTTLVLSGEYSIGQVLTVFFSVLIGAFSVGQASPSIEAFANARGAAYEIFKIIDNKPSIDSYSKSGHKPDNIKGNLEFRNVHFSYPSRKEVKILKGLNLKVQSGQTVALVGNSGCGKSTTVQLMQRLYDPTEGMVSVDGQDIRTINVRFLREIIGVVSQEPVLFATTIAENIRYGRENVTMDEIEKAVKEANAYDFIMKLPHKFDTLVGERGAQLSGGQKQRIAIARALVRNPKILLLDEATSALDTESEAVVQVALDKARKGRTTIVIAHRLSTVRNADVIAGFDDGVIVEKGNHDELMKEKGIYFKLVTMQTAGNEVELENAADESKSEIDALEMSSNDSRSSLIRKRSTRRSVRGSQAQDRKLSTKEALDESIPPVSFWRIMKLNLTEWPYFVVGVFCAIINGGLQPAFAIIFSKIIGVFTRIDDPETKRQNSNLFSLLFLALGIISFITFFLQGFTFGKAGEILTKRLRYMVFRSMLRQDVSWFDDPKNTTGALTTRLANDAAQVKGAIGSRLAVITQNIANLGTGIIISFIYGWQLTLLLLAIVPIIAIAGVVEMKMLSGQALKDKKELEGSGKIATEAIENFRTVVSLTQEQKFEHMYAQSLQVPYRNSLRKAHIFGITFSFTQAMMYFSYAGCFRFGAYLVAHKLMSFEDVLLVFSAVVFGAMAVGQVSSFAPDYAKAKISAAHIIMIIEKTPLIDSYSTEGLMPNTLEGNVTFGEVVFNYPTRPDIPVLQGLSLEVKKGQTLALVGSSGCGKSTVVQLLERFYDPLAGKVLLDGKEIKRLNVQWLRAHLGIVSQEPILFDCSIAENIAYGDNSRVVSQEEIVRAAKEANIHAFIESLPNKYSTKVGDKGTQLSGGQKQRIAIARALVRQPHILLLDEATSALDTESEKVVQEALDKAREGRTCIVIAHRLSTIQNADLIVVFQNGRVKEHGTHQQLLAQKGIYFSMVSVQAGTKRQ
Description: The MDR interaction potency of these compounds was studied by detecting the inhibition of the P-gp-, MRP1- or BCRP-mediated efflux of a substrate in cells overexpressing the studied pumps. In detail, we measured the following: (i) the transport inhibition of the profluorescent probe calcein-AM (P-gp and MRP1 substrate) in MDCK-MDR1 and MDCK-MRP1 cells (P-gp- and MRP1-overexpressing cells, respectively); (ii) the transport inhibition of the fluorescent probe Hoechst 33342 (BCRP substrate) in MDCK-BCRP cells (BCRP-overexpressing cells).
Experiments were performed as previously described. MDCK-MDR1 and MDCK-MRP1 cells (30,000 cells per well) were seeded in a 96-well black CulturePlate in 100 µL of medium and allowed to grow overnight in a humidified atmosphere of 5% CO2 at 37 °C. Tested compounds (100 µL) in a final concentration ranging between 0.01 nM and 100 µM, solubilized in culture medium, were added to the monolayers. After 30 min in a humidified atmosphere of 5% CO2 at 37 °C, 100 µL of Calcein-AM in phosphate-buffered saline (PBS) was added to obtain a final concentration of 2.5 µM and the plate was incubated for 30 min. All wells were washed 3 times with 100 µL ice-cold PBS and read with Victor3 (PerkinElmer) after adding 100 µL of cold PBS. Excitation and emission wavelengths of 485 nm and 535 nm, respectively, were used. In these experimental conditions, cell Calcein-AM accumulation in the absence and in the presence of each tested compound was evaluated and compared to the basal level of fluorescence derived from untreated cells. The increase in fluorescence from the baseline level was measured in the treated wells. EC50 values were determined by fitting the rate of fluorescence increase versus log[dose].

Row | SMILES | reduction of cellular viability (K562/DOX cells) | toxicity (A549/DOX cells) [%] | more cytotoxic in resistant cells than in parental sensitive cells (A549/DOX cells) | toxicity (HT29/DOX cells) [%] | more cytotoxic in resistant cells than in parental sensitive cells (HT29/DOX cells) | EC50 (P-gp) [µM]
1 | COc1ccc(C(CCCN2CCN(CCCCOc3ccc4ccc(=O)oc4c3)CC2)c2ccc(OC)cc2)cc1 [Compound 27, 7-(4-(4-(4,4-Bis(4-methoxyphenyl)butyl)piperazin-1-yl)butoxy)-2H-chromen-2-one] | 30–50% | ≥ 35 | 15%-20% | ≥ 35 | 15%-20% | 3.99 ± 0.11
2 | COc1ccc(C(CCCN2CCN(CCCOc3ccc4oc(=O)ccc4c3)CC2)c2ccc(OC)cc2)cc1 [Compound 32, 6-(3-(4-(4,4-Bis(4-methoxyphenyl)butyl)piperazin-1-yl)propoxy)-2H-chromen-2-one] |  | ≥ 35 | 15%-20% | ≥ 35 | 15%-20% | 4.53 ± 0.17
